Laboratory results published in patent US20250154163A1, “Pyrimidinone-Containing 17-Beta-Hydroxysteroid Dehydrogenase Type 13 Inhibitors” (ENANTA PHARMACEUTICALS, INC., priority 2023, published 2025).
Where a name gives a salt, the structure may show the parent alone.

Key:
[1] = biological target: T1, Recombinant human 17β-HSD13 (Homo sapiens, UniProt Q7Z5P4); experiment: 17β-HSD13 rapid-fire mass spectrometry assay (RF/MS assay); format: biochemical; settings: inhibition of 17β-HSD13, RF/MS assay; HSD17B13 80 nM, LTB4 10 μM, NAD+ 0.5 mM, RT 3 h
T1 construct: host or cells: Sf9 insect cells
T1 sequence (Q7Z5P4 20-300): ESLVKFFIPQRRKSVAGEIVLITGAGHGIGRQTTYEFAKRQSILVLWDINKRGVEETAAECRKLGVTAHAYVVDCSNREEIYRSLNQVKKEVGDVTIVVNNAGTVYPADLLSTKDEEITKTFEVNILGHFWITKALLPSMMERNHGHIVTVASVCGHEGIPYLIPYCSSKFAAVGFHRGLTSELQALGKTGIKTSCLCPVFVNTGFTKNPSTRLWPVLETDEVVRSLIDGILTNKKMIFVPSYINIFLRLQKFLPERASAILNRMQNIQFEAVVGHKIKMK
Text: 17(3-HSD13 rapid-fire mass spectrometry assay (RF/MS assay). Recombinant human 17β-HSD13 was expressed and purified from sf9 cells at Charles River Labs (Saffron Walden, UK). Leukotriene B4 (Catalog #71160-24-2) and 12-oxoleukotriene B4 (Catalog #20140) were purchased from Cayman Chemicals (Ann Arbor, MI). NAD+ (Catalog #N8285), BSA (Catalog #A7030), DMSO (Catalog #D2650), and Tween-20 (Catalog #11332465001) were purchased from Sigma (St. Louis, MO). Formic acid (Catalog #28905) was from ThermoFisher Scientific and 384 deep well PP microplates (Catalog #784261) were from Greiner Bio-One. In a typical IC50 assay performed in a 384w PP microplate, test compounds (0-100 μM) were incubated with HSD17B13 (80 nM), LTB4 (10 μM), and NAD^+ (0.5 mM) in 10 μL assay buffer (20 mM Tris (pH 7.5), BSA (0.005%), and Tween-20 (0.01%)) at RT for 3 h. The assays were quenched by adding 20 μL of 0.15% aqueous formic acid and the plates were frozen at −80° C. RF/MS analysis was performed at PureHoney Technologies (Billerica, MA) on a RapidFire RF300 system (Agilent Technologies, Inc.) coupled to an API 4000 triple quadrupole mass spectrometer (Sciex) equipped with Agilent RapidFire cartridge type A (C4). The mobile phase was 0.09% formic acid and 0.01% trifluoracetic acid in water (Buffer A) and 0.09% formic acid and 0.01% trifluoracetic acid in 80% aqueous acetonitrile (Buffer B). The RapidFire method conditions were the following: 250 ms aspirate, 3000 ms load/desalt, 4000 ms elute, and 500 ms re-equilibrate. RF-MS/MS was performed in negative polarity (−4500 V), the source temperature was 650° C., and gas 1 and gas 2 settings for nitrogen were set to 50. The curtain gas and collision gas were also nitrogen and were set to 20 and 12, respectively. Leukotriene B4 (335.3) and 12-oxoLeukotriene B4 (333.3) SRM transitions were optimized with Discovery Quant software and extracted ion counts for these analytes were determined.
Data Analysis. 17β-HSD13 enzyme activity was measured as percent conversion of extracted ion counts and normalized to high and low controls to determine percent residual activity at various concentrations of test compounds. Data was fitted to normalized activity (variable slope) versus concentration fit in GraphPad Prism 7 to determine IC50. All experiments were run in duplicates.
By using the above method, the inhibition of 17β-HSD13 was evaluated for the compounds of Formula (I). IC50 ranges are as follows: A is <0.1 μM; B is 0.1 μM-1.0 μM; C is 1.0 μM-10 μm; and D is >10 μM.

[2] = biological target: T2, human HSD17β13 (stable HEK293T cell line overexpressing human HSD17β13) (Homo sapiens, UniProt Q7Z5P4); experiment: HSD17β13 inhibitor cell-based screening assay (conversion of estradiol-d2 to estrone-d2 by RF-MS); settings: conversion of estradiol-d2 to estrone-d2 after 24 hours
T2 construct: expressed in transfected cells
T2 sequence (Q7Z5P4 20-300): T1 sequence (Q7Z5P4 20-300)
Procedure, shortened: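 Cellular IC50 is based on 24-h conversion of estradiol-d2 (5 μM final) to estrone-d2, measured by RF-MS in acetonitrile-precipitated supernatants. Assay uses human HSD17β13-overexpressing HEK293T cells (7.5E3/well, 1% charcoal/dextran FBS MEM), with compounds dosed as a 9-point 1:3 series to 10 μM final. ATPlite luminescence on overexpressing and parent lines measured viability.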

Structure (SMILES)	IC50 [1] [µM]	IC50 [2] [µM]
COc1ccc(-c2nc3sc4c(C=O)cccc4c3c(=O)n2Cc2cnco2)c(C2CC2)c1 [Example 15, 2-(2-cyclopropyl-4-methoxyphenyl)-3-(oxazol-5-ylmethyl)-4-oxo-3,4-dihydrobenzo[4,5]thieno[2,3-d]pyrimidine-8-carbaldehyde]	> 10	1 to 100
COc1ccc(-c2nc3sc4c(C(F)F)cccc4c3c(=O)n2Cc2cnco2)c(C2CC2)c1 [Example 16, 2-(2-cyclopropyl-4-methoxyphenyl)-8-(difluoromethyl)-3-(oxazol-5-ylmethyl)benzo[4,5]thieno[2,3-d]pyrimidin-4(3H)-one]	> 10	1 to 100
COc1ccc(-c2nc3sc4c(O[C@@H]5O[C@H](C(=O)O)[C@@H](O)[C@H](O)[C@H]5O)cccc4c3c(=O)n2Cc2cnco2)c(C2CC2)c1 [Example 17, (2S,3S,4S,5R,6S)-6-((2-(2-cyclopropyl-4-methoxyphenyl)-3-(oxazol-5-ylmethyl)-4-oxo-3,4-dihydrobenzo[4,5]thieno[2,3-d]pyrimidin-8-yl)oxy)-3,4,5-trihydroxytetrahydro-2H-pyran-2-carboxylic acid]	1 to 10	1 to 100
COc1ccc(-c2nc3sc4c(O)c(Cl)cc(Cl)c4c3c(=O)n2Cc2cnco2)c(C2CC2)c1 [Example 18, 5,7-dichloro-2-(2-cyclopropyl-4-methoxyphenyl)-8-hydroxy-3-(oxazol-5-ylmethyl)benzo[4,5]thieno[2,3-d]pyrimidin-4(3H)-one]	0.1 to 1	0.1 to 0.5
COc1cc(C2CC2)c(-c2nc3sc4c(O)c(Cl)cc(Cl)c4c3c(=O)n2Cc2cnco2)cc1Cl [Example 19, 5,7-dichloro-2-(5-chloro-2-cyclopropyl-4-methoxyphenyl)-8-hydroxy-3-(oxazol-5-ylmethyl)benzo[4,5]thieno[2,3-d]pyrimidin-4(3H)-one]	0.1 to 1	0.1 to 0.5
COc1ccc(-c2nc3sc4c(OCCO)cccc4c3c(=O)n2Cc2cnco2)c(C2CC2)c1 [Example 20, 2-(2-cyclopropyl-4-methoxyphenyl)-8-(2-hydroxyethoxy)-3-(oxazol-5-ylmethyl)benzo[4,5]thieno[2,3-d]pyrimidin-4(3H)-one]	> 10	1 to 100
C=CCc1ccc2c(sc3nc(-c4ccc(OC)cc4C4CC4)n(Cc4cnco4)c(=O)c32)c1O [Example 21, 7-allyl-2-(2-cyclopropyl-4-methoxyphenyl)-8-hydroxy-3-(oxazol-5-ylmethyl)benzo[4,5]thieno[2,3-d]pyrimidin-4(3H)-one]	0.1 to 1	1 to 100
CCCc1ccc2c(sc3nc(-c4ccc(OC)cc4C4CC4)n(Cc4cnco4)c(=O)c32)c1O [Example 22, 2-(2-cyclopropyl-4-methoxyphenyl)-8-hydroxy-3-(oxazol-5-ylmethyl)-7-propylbenzo[4,5]thieno[2,3-d]pyrimidin-4(3H)-one]	1 to 10	1 to 100
COc1ccc(-c2nc3sc4c(OS(=O)(=O)O)cccc4c3c(=O)n2Cc2cnco2)c(C2CC2)c1 [Example 23, 2-(2-cyclopropyl-4-methoxyphenyl)-3-(oxazol-5-ylmethyl)-4-oxo-3,4-dihydrobenzo[4,5]thieno[2,3-d]pyrimidin-8-yl hydrogen sulfate]	0.1 to 1	1 to 100
COc1ccc(-c2nc3sc4c(O)c(N)ccc4c3c(=O)n2Cc2cnco2)c(C2CC2)c1 [Example 28, 7-amino-2-(2-cyclopropyl-4-methoxyphenyl)-8-hydroxy-3-(oxazol-5-ylmethyl)benzo[4,5]thieno[2,3-d]pyrimidin-4(3H)-one]	0.1 to 1	1 to 100
COc1ccc(-c2nc3sc4c(ccc5[nH]c(=O)oc54)c3c(=O)n2Cc2cnco2)c(C2CC2)c1 [Example 29, 8-(2-cyclopropyl-4-methoxyphenyl)-7-(oxazol-5-ylmethyl)-3,7-dihydrooxazolo[5″,4″:3′,4′]benzo[1′,2′:4,5]thieno[2,3-d]pyrimidine-2,6-dione]	> 10	0.5 to 1
COc1ccc(-c2nc3sc4c(ccc5[nH]c(=O)[nH]c54)c3c(=O)n2Cc2cnco2)c(C2CC2)c1 [Example 30, 8-(2-cyclopropyl-4-methoxyphenyl)-7-(oxazol-5-ylmethyl)-3,7-dihydro-1H-imidazo[4″,5″:3′,4′]benzo[1′,2′:4,5]thieno[2,3-d]pyrimidine-2,6-dione]	> 10	1 to 100
COc1ccc(-c2nc3sc4cc(O)ccc4c3c(=O)n2Cc2cnco2)c(C2CC2)c1 [Example 36, 2-(2-cyclopropyl-4-methoxyphenyl)-7-hydroxy-3-(oxazol-5-ylmethyl)benzo[4,5]thieno[2,3-d]pyrimidin-4(3H)-one]	> 10	1 to 100

Second part, the compound after the results:

IC50 [1] [µM]	IC50 [2] [µM]	Structure (SMILES)
< 0.1	< 0.1	COc1ccc(-c2nc3sc4c(O)c(Br)ccc4c3c(=O)n2Cc2cnco2)c(C2CC2)c1 [Example 24, 7-bromo-2-(2-cyclopropyl-4-methoxyphenyl)-8-hydroxy-3-(oxazol-5-ylmethyl)benzo[4,5]thieno[2,3-d]pyrimidin-4(3H)-one]
< 0.1	0.1 to 0.5	COc1ccc(-c2nc3sc4c(O)cccc4c3c(=O)n2Cc2ocnc2F)c(C2CC2)c1 [Example 25, 2-(2-cyclopropyl-4-methoxyphenyl)-3-((4-fluorooxazol-5-yl)methyl)-8-hydroxybenzo[4,5]thieno[2,3-d]pyrimidin-4(3H)-one]
< 0.1	0.1 to 0.5	COc1ccc(-c2nc3sc4c(O)c(C)ccc4c3c(=O)n2Cc2cnco2)c(C2CC2)c1 [Example 32, 2-(2-cyclopropyl-4-methoxyphenyl)-8-hydroxy-7-methyl-3-(oxazol-5-ylmethyl)benzo[4,5]thieno[2,3-d]pyrimidin-4(3H)-one]
< 0.1	< 0.1	COc1ccc(-c2nc3sc4c(O)c(Cl)ccc4c3c(=O)n2Cc2cc(C)no2)c(C2CC2)c1 [Example 39, 7-chloro-2-(2-cyclopropyl-4-methoxyphenyl)-8-hydroxy-3-((3-methylisoxazol-5-yl)methyl)benzo[4,5]thieno[2,3-d]pyrimidin-4(3H)-one]
< 0.1	< 0.1	O=c1c2c(nc(-c3ccc(F)cc3C3CC3)n1Cc1cc(C(F)(F)F)no1)sc1c(O)c(Cl)ccc12 [Example 40, 7-chloro-2-(2-cyclopropyl-4-fluorophenyl)-8-hydroxy-3-((3-(trifluoromethyl)isoxazol-5-yl)methyl)benzo[4,5]thieno[2,3-d]pyrimidin-4(3H)-one]
< 0.1	< 0.1	CCc1ncc(Cn2c(-c3ccc(OC)cc3C3CC3)nc3sc4c(O)c(Cl)ccc4c3c2=O)s1 [Example 41, 7-chloro-2-(2-cyclopropyl-4-methoxyphenyl)-3-((2-ethylthiazol-5-yl)methyl)-8-hydroxybenzo[4,5]thieno[2,3-d]pyrimidin-4(3H)-one]
< 0.1	< 0.1	O=c1c2c(nc(-c3ccc(F)cc3C3CC3)n1Cc1cnco1)sc1c(O)c(Cl)ccc12 [Example 42, 7-chloro-2-(2-cyclopropyl-4-fluorophenyl)-8-hydroxy-3-(oxazol-5-ylmethyl)benzo[4,5]thieno[2,3-d]pyrimidin-4(3H)-one]
